According to patent publication US11179399B2, “6-heterocyclyl-4-morpholin-4-ylpyridine-2-one compounds useful for the treatment of cancer and diabetes” (Sprint Bioscience AB, priority 2016, dated 2021):
Where two headings read alike, the source gives them in different places.

Tests used:
Vps34 enzyme = Vps34 enzyme (Homo sapiens (Human), UniProt Q8NEB9); test: Vps34 biochemical assay (Adapta kinase assay); conditions: 20 μM ATP and 200 μM PI:PS in substrate mix, 1 h at room temperature, read-out: Median IC50 uM Adapta
Description: Dilution series of compounds of the invention were prepared in DMSO at 100 times the final assay concentration (n1=n0/3 in 10 points). The compounds were further diluted to 4 times the assay concentration in assay buffer (Life technologies buffer Q, PV5125, diluted 5 times supplemented with 2 mM DTT and 2 mM MnCl2). 2.5 μl of the diluted compounds were added to a 384 well assay plate followed by 2.5 μl of 16.5 nM Vps34 enzyme (Life technologies, PV5126). Enzyme and compounds were pre-incubated at rt for 15 min. Then 5 μl of substrate mix containing 20 μM ATP (Life technologies, PV3227) and 200 μM PI:PS substrate (Life technologies, PV5122) in assay buffer was added to the wells containing compound and enzyme. Mixing was performed by pipetting several times. The reaction was incubated at room temperature for 1 h. Then 5 μl stop-detection mix, prepared as described in the Adapta kinase assay kit instructions (Life technologies, PV5099) containing Adapta Eu-anti-ADP antibody (2.3 nM), Alexa Fluor 647 ADP tracer (9 nM) and EDTA (30 mM) in TR-FRET buffer, was added to quench the reaction. Mixing was performed by pipetting several times. The assay plate was then incubated at room temperature for 30 min and read with Artemis micro plate reader. Percent inhibition of the compounds as compared to DMSO treated control samples was calculated. By the use of Dotmatics software compound concentration versus percent inhibition was fitted to generate IC50 values.

[1] = system: autophagy in HOS cells (GFP-LC3); test: High content screening autophagy assay (GFP-LC3 foci); type: cell-based, Human; conditions: foci area per cell, read-out: Median IC50 (uM) Cellular assay
Description: Human osteosarcoma cells (HOS) stably expressing a Green Fluorescent Protein (GFP) tagged LC3 (GFP-LC3) were used to determine the inhibitory effect on autophagy of proprietary compounds. For that purpose, autophagy was activated by using the mTOR inhibitor KU-0063794 at 500 nM in the presence of Bafilomycin A1 (Sigma-Aldrich) at 5 nM. Shortly, cells were plated overnight in clear bottom 96-well plates in DMEM-High Modified media (Hi-Clone Cat #SH30285.01). At the start of the experiment, the media was removed and replaced with fresh media containing the mTOR inhibitor, Bafilomycin A1 and the vehicle or a test compound as indicated. After 6 hours the media was removed, cells were washed twice with ice-cold phosphate buffered saline (PBS) and fixed with 4% paraformaldehyde for 20 minutes at room temperature. Then the cells were washed twice with ice-cold PBS before adding Hoechst 33342 at 1 μg/ml in PBS for nuclear staining. After incubation overnight at 4° C., cells were washed once with PBS to remove the excess of dye and 100 μl of PBS was added to each well. Images were acquired at 20× magnification, 6 images per well, using the ImageXpress automated microscope (Molecular Devices Inc.) and analyzed with MetaXpress software to identify LC3-GFP foci. Foci area per cell values were used to generate dose response curves and IC50 values were calculated using the non-linear fitting analysis in GraphPad Prism software.

[2] = Homo sapiens, HOS, 6 h, HOS cells with GFP-LC3, autophagy activated by KU-0063794 500 nM with Bafilomycin A1 5 nM

Sequence of Vps34 enzyme (Q8NEB9 whole entry): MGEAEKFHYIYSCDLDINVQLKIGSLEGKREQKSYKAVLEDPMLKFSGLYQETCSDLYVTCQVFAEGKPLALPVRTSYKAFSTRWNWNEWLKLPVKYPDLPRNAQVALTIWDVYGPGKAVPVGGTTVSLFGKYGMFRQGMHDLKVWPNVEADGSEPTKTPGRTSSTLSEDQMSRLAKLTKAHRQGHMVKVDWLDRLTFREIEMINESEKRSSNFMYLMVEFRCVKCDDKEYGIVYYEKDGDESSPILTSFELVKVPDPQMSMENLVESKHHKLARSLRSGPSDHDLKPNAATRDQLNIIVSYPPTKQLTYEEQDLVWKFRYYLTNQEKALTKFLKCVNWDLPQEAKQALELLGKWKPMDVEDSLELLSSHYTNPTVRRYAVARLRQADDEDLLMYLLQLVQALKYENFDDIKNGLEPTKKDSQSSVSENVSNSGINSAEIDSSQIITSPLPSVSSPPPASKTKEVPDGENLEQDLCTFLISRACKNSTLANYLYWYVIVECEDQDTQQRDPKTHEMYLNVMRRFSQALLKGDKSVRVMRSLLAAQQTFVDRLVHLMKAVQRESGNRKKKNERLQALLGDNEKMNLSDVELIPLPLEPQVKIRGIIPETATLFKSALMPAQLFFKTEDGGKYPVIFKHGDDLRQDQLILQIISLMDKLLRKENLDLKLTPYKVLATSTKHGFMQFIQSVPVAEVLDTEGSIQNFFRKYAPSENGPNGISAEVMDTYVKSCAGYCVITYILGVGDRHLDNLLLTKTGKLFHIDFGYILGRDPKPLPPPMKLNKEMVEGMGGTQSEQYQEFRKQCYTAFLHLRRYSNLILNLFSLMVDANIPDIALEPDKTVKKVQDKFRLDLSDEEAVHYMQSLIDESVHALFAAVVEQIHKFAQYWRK

Row | Structure (SMILES) | IC50 (Vps34 enzyme) [µM] | IC50 [1, 2] [µM] | IC50 ([1]; HOS cells with GFP-LC3, autophagy activated by KU-0063794 500 nM with Bafilomycin A1 5 nM, 6 hours) [µM]
1 | CC1COCCN1c1cc(N2CCCC2c2ccccc2)[nH]c(=O)c1 (centres unmarked) [Example 9, 4-(3-methylmorpholin-4-yl)-6-(2-phenylpyrrolidin-1-yl)-1H-pyridin-2-one] | 0.02 | 2 | 
2 | COc1cccc(C2CCCN2c2cc(N3CCOCC3C)cc(=O)[nH]2)c1 (centres unmarked) [Example 7, 6-[2-(3-methoxyphenyl)pyrrolidin-1-yl]-4-(3-methylmorpholin-4-yl)-1H-pyridin-2-one] | 0.004 | 0.5 | 
3 | C[C@@H]1COCCN1c1cc(N2CCN(C(=O)Cc3ccc(F)cc3)CC2C(F)(F)F)[nH]c(=O)c1 (stereo partly drawn) [Example 47, 6-[4-[2-(4-fluorophenyl)acetyl]-2-(trifluoromethyl)piperazin-1-yl]-4-[(3R)-3-methylmorpholin-4-yl]-1H-pyridin-2-one] | 0.006 | 0.09 | 
4 | COc1cccc(C2CCCN2c2cc(N3CCOC[C@H]3C)cc(=O)[nH]2)c1 (single isomer, unassigned) [Example 17_2] | 0.006 | 0.3 | 
5 | C[C@@H]1COCCN1c1cc(N2CCCCC2C(F)(F)F)[nH]c(=O)c1 (mixture of isomers) [Example 25, (R) and (S) 4-[(3R)-3-methylmorpholin-4-yl]-6-[2-(trifluoromethyl)-1-piperidyl]-1H-pyridin-2-one] | 0.004 | 0.02 | 
6 | C[C@@H]1COCCN1c1cc(N2CCCC2c2cccc(Cl)c2)[nH]c(=O)c1 (mixture of isomers) [Example 36, (R) and (S) 6-[2-(3-chlorophenyl)pyrrolidin-1-yl]-4-[(3R)-3-methylmorpholin-4-yl]-1H-pyridin-2-one] | 0.02 | 0.03 | 
7 | CC(=O)N1CCN(c2cc(N3CCOC[C@H]3C)cc(=O)[nH]2)C(C(F)(F)F)C1 (stereo partly drawn) [Example 45, 6-[4-acetyl-2-(trifluoromethyl)piperazin-1-yl]-4-[(3R)-3-methylmorpholin-4-yl]-1H-pyridin-2-one] | 0.003 | 0.1 | 
8 | C[C@@H]1COCCN1c1cc(N2CCCC2c2cccc(Cl)c2)[nH]c(=O)c1 (single isomer, unassigned) [Example 36_1] | 0.01 | 0.4 | 
9 | C[C@@H]1COCCN1c1cc(N2CCCC2c2cccc(Cl)c2)[nH]c(=O)c1 (single isomer, unassigned) [Example 36_2] | 0.02 |  | 0.7
10 | C[C@@H]1COCCN1c1cc(N2CCCC2c2ccccc2)[nH]c(=O)c1 (single isomer, unassigned) [Example 18_2] | 0.02 | 1 | 
11 | C[C@@H]1COCCN1c1cc(N2CCOCC2C(F)(F)F)[nH]c(=O)c1 (stereo partly drawn) [Example 32, 4-[(3R)-3-methylmorpholin-4-yl]-6-[3-(trifluoromethyl)morpholin-4-yl]-1H-pyridin-2-one] | 0.006 | 0.3 | 
12 | C[C@@H]1COCCN1c1cc(N2CCCC2c2cccc(F)c2)[nH]c(=O)c1 (mixture of isomers) [Example 13, (R) and (S) 6-[2-(3-fluorophenyl)pyrrolidin-1-yl]-4-[(3R)-3-methylmorpholin-4-yl]-1H-pyridin-2-one] | 0.02 | 2 | 
13 | COc1cccc(C2CCCN2c2cc(N3CCOC[C@H]3C)cc(=O)[nH]2)c1 (mixture of isomers) [Example 17, (R) and (S) 6-[2-(3-methoxyphenyl)pyrrolidin-1-yl]-4-[(3R)-3-methylmorpholin-4-yl]-1H-pyridin-2-one] | 0.01 | 0.1 | 
14 | C[C@@H]1COCCN1c1cc(N2CCC[C@@H]2C(F)(F)F)[nH]c(=O)c1 [Example 35, 4-[(3R)-3-methylmorpholin-4-yl]-6-[(2R)-2-(trifluoromethyl)pyrrolidin-1-yl]-1H-pyridin-2-one] | 0.009 | 0.7 | 
15 | C[C@@H]1COCCN1c1cc(N2CCOCC2C(F)(F)F)[nH]c(=O)c1 (single isomer, unassigned) [Example 43_1] | 0.003 | 0.03 | 
16 | O=c1cc(N2CCOCC2)cc(N2CCCC2c2ccccc2)[nH]1 (centres unmarked) [Example 1, 4-morpholino-6-(2-phenylpyrrolidin-1-yl)-1H-pyridin-2-one] | 0.05 | 5 | 
